The text below walks through data of patent US9896512B2, “Antitumor peptide derived from a complementarity determining region of a humanized monoclonal antibody to NAP12B transporter” (Recepta Biopharma S.A., priority 2010, dated 2018).

“Also recorded” adds a separate entry of the source. No end group written: not given here.

Series [1] has as its system A2058 human melanoma cells. Put plainly: Cell adherence, trypsin-EDTA detachment, Trypan blue count. It counts as cell-based. Particulars: 24 hours; FIGS. 2A-2D (SKBR3 and A2058), cell line not given; read-out: peptide concentration at which 50% of cells were trypsin-EDTA resistant. The procedure: SKBR3 cells (1×10^4) were cultivated in 96-well plates and incubated with RB9 (SEQ ID NO: 8) and RB10 (SEQ ID NO: 9). After 18 hours incubation, viable cells detached with trypsin/EDTA were counted using Trypan blue exclusion staining. Assays were performed in triplicate in two independent experiments. The A2058 human melanoma cells (1×10^4) were incubated for 4 hours at 37° C. in a humidified chamber with 5% CO2. Fresh media containing different peptide concentrations of RB9 and RB10 ranging from 0 to 1 mM (i.e., 0, 0.25, 0.5 and 1 mM) was added to the wells and incubated for 24 hours. The media was then aspirated, cells were detached with 30 μl/well of trypsin-EDTA for five minutes at 37° C. and viable cells were counted in a Neubauer chamber using Trypan blue. As shown in FIGS. 2A-2D, 50% of cells were trypsin-EDTA resistant at 630 and 610 μM RB9 and RB10, respectively.

Another series deals with SiHa cells. Put plainly: Detection of peptide-treated hyper adherent cells (MTT after trypsin-EDTA). It counts as cell-based, human. Particulars: 500 μM peptide, 24 hours. The procedure: (§1) Viable SiHa cells (1×10^4)/well were distributed on a 96-well culture plate and incubated for 4 hours at 37° C. in a humidified chamber with 5% CO2. Fresh medium containing different peptide concentrations of RB9 (SEQ ID NO: 8) and RB10 (SEQ ID NO: 9) ranging from 0 to 1 mM (i.e., 0, 0.25, 0.5 and 1 mM) was added to the wells and incubated for 24 hours. The medium was then aspirated; cells were detached with 30 μl/well of trypsin-EDTA for five minutes at 37° C. and gently washed with PBS. Hyper-adherent cells were incubated for 4 hours with 0.5 mg/mL of MTT [3-(4,5-dimethylthiazol-2-yl)-2,5-diphenyltetrazolium bromide] in fresh medium and formazan crystals were solubilized adding 1 volume of 10% SDS solution overnight. Intensity was measured using a plate reader at 570 nm.

For the next series, the system named is HCT cells. The series is described as above. It counts as cell-based, human. Particulars: 500 μM peptide, 24 hours. The procedure: as §1
Viable HCT cells (1×10^4)/well were distributed on a 96-well culture plate and incubated for 4 hours, following the same protocol of Example 5.

The subject of the next series is HL-60 cells. Put plainly: Cell viability, Trypan blue count or MTT assay. Particulars: for cytotoxicity to HL-60 cells: cells growing in suspension, Trypan blue / MTT. The class given is cell-based, human. As for the experimental part:
Viable HL-60 cells (1×10^4)/well were distributed on a 96-well culture plate and incubated for 4 hours with different concentrations of RB9 (SEQ ID NO: 8) ranging from 0 to 1 mM for 24 hours. Cell viability was directly measured by counting in a Neubauer chamber with Trypan blue or estimated by the colorimetric MTT assay.
For orientation: Tetrazolium assays rely on reduction of a dye to a coloured formazan, in cell work by metabolically active cells.

The subject of series [2] is B16F10-Nex2 melanoma cells. Put plainly: In vivo protection against lung colonization (metastatic melanoma model). Particulars: 250 μg i.p. on days 1, 3, 5, 7, 9, 11; lungs after 22 days. More on the design: species or system C57B1/6 mice. The procedure: Details of the in vitro tumor cell growth, cytotoxicity tests, determination of viable cells and in vivo protection experiments with B16F10 cells in a mouse metastatic model are described in Polonelli et al. (PLoS One. 3(6):e2371, 2008) and Dobroff et al. (Translat. Onc., 3: 204-217, 2010).
Peptides RB9 and RB10 along with the apoptotic peptide A4H3, a true microantibody of cytotoxic anti-melanoma mAb (A4) (Dobroff et al., Translat. Onc., 3: 204-217, 2010), were tested for their protective effects against lung colonization by B16F10-Nex2 melanoma cells (2×105) injected intravenously in C57B1/6 mice (6 animals/group). Peptides were intraperitoneally administered (250 μg i.p.) on days 1, 3, 5, 7, 9, 11 after tumor cell challenge. Lungs of peptide-treated animals are shown in FIG. 5 after 22 days of tumor challenge. As noticed, peptide treatment was interrupted 10 days before animal sacrifice.
In vivo protection by peptides RB9 and RB10 (and A4H3 control) against lung colonization by B16F10-Nex2 melanoma cells (2×105) injected intravenously in C57B1/6 mice (6 animals/group) is shown in FIG. 6. The other 5 CDRs of RebMab200 (SEQ ID NOs: 7, 10, 11, 12, 13) were unprotective in vivo. Peptides were administered in the same way as described above, and the number of lung nodules was determined.

For series [3], the system named is B16F10-Nex2 melanoma cells. Put plainly: Cell migration, wound healing assay. The class given is cell-based, murine. Particulars: for inhibition of cell migration (words): peptide 500 μM, 24 hours after wounding. The procedure:
(§2) For the migration studies, 5×10^5 or 10^6 cells were distributed on 6-well plates and let them to adhere for 2 hours at 37° C./5% CO2. The culture medium was changed and the peptide was added at 500 μM overnight. The cell monolayer was “wounded” with a P1000 tip and incubated for 24 hours. Images of untreated cells (control) and peptide treated cells were captured with a JENOPTIK camera. Cell numbers (nuclei) were determined using the Pixcavator software version 5.0.
Viable B16F10-Nex2 cells (5×105)/well were distributed on a 6-well culture plate and incubated overnight at 37° C. in a humidified chamber with 5% CO2. A P1000 tip was used for wounding the cell monolayer and the image was immediately captured (0 hour) using a camera (Jenoptik) with the software Progres 2.8. After 24 hours a new image of the same field was obtained and recorded (24 hours).
Viable B16F10-Nex2 cells (3×10^5)/well were distributed in a 12-well culture plate and incubated for 4 hours at 37° C. in a humidified chamber with 5% CO2. Fresh medium containing RB10 (SEQ ID NO: 9) at different concentrations was added to the wells and incubated again for 4 hours. The monolayer wounding was performed as described above in Example 12, and images obtained accordingly. After 24 hours a new image in the same field was obtained and recorded (24 hours). […] Magnification ×100.

For series [4], the system named is human cervix cancer SiHa cells. Nature of the series: Cell migration, wound healing assay. Particulars: peptide 500 μM, 24 hours. The class given is cell-based. The procedure: as §2
For series [5], the system named is human glioblastoma U87 cells. Nature of the series: Cell migration, wound healing assay. It counts as cell-based. Particulars: peptide 500 μM, 24 hours. As for the experimental part:
as §2

With `C[C@@H]1NC(=O)[C@H](CCCNC(=N)N)NC(=O)[C@H](C)NC(=O)[C@H]([C@@H](C)O)NC(=O)[C@H](CCC(=O)O)NC(=O)CNC(=O)[C@H](CCCNC(=N)N)NC(=O)[C@H](C)NC(=O)[C@@H](N)CSSC[C@@H](C(N)=O)NC(=O)CNC(=O)[C@H](CCC(N)=O)NC(=O)CNC(=O)[C@H](Cc2c[nH]c3ccccc23)NC(=O)[C@H](Cc2ccc(O)cc2)NC(=O)[C@H](C)NC(=O)[C@H](Cc2ccccc2)NC(=O)[C@H]([C@@H](C)O)NC1=O` [RB9, CARGETARATFAYWGQGC-NH2], the EC50 in series [1] was 630 µM; in the series with HL-60 cells (24 hours, Trypan blue and MTT, read-out: concentration reducing cell viability by 50% (ED50)), 920 to 930 µM. Besides, the “tumor cells resistant to trypsinization” value with SiHa cells is 30%. For the same molecule, the “cells resistant to trypsinization” value with HCT cells came to 80%. The “cytotoxicity to HL-60 cells” value in the series with HL-60 cells is reported as “mildly cytotoxic; also recorded: mild cytotoxicity”. Besides, the “protection against lung colonization (lung nodules)” value in series [2] is recorded as “successfully protected; also recorded: reduced”. Also, the “inhibition of cell migration (words)” value in series [3] was “Total inhibition; also recorded: complete inhibition”. In addition, the “inhibition of cell migration” value in series [4] is listed as “no effect; also recorded: non-inhibition”; in series [5] it was “poorly; also recorded: partial inhibition”.
Consider “CARGETARATFAYWGQG-NH2 [RB10, CARGETARATFAYWGQG-NH2]”, for which the EC50 in series [1] came to 610 µM. For the same molecule, in the series with SiHa cells, the “tumor cells resistant to trypsinization” value turned out to be 80%. In the series with HCT cells, the “cells resistant to trypsinization” value turned out to be 80%. The “cytotoxicity to HL-60 cells” value in the series on HL-60 cells was “mildly cytotoxic”. The “protection against lung colonization (lung nodules)” value in series [2] is recorded as “successfully protected; also recorded: protective; also recorded: reduced”. Further, the “inhibition of cell migration” value is listed as “more than 30%” in series [3] (30 μM, 24 hours); 100% in series [3] (500 μM, 24 hours); “complete or almost complete inhibition” in series [4]; “partial migration inhibition” in series [5]. In series [3] (different concentrations, 24 hours), the “migration inhibition, dose dependence” value is on record as “dose-dependent inhibition”. The “inhibition of cell migration (words)” value in series [3] is “Total inhibition; also recorded: inhibited; also recorded: complete inhibition”.
